ChEMBL document CHEMBL4483862, “Open-source discovery of chemical leads for next-generation chemoprotective antimalarials” (2018)

System: Plasmodium berghei
Experiment: Luciferase/luciferin-expressing antifolate-resistant parasites were used to infect a culture of HepG2 cells that were pre-incubated with compounds. Infected hepatocytes emit light due to the luciferase reaction. Assay results are presented as the percent inhibition of light emission compared to control. […]
Type: functional
Settings: sporozoite; for IC90: read-out: LUCIFERASE INFECTION ASSAY - IC90

SMILES | IC90 [nM] | further results
COc1ccc(-c2cc(NC=O)c3ncc(-c4ccc(OC)c(OC)c4)n3c2)c(OC)c1 | 32.6 | IC50 (HEPG2TOX_HILL_SLOPE 0.668, HEPG2TOX_R_SQUARED 0.811, PBLUC_HILL_SLOPE 48.6, PBLUC_R_SQUARED 0.635, read-out: LUCIFERASE INFECTION ASSAY - IC50): 31.2 nM
Cc1cc(C)n(-c2ccc3c(Cl)cc(Cl)c(O)c3n2)n1 | 393 | IC50 (HEPG2TOX_HILL_SLOPE 0.646, HEPG2TOX_R_SQUARED 0.957, PBLUC_HILL_SLOPE 194, PBLUC_R_SQUARED 0.635, read-out: LUCIFERASE INFECTION ASSAY - IC50): 388 nM
Oc1cccc(-c2cnc3cnc(-c4ccc(Cl)cc4)cn23)c1 | > 10300 | IC50 (HEPG2TOX_HILL_SLOPE 0.659, HEPG2TOX_R_SQUARED 0.949, PBLUC_HILL_SLOPE 0.784, PBLUC_R_SQUARED 0.857, read-out: LUCIFERASE INFECTION ASSAY - IC50): 1550 nM
CN(CC(=O)Nc1ccc(Cl)c(S(=O)(=O)N2CCOCC2)c1)C(=O)/C=C/c1cccs1 | > 10000 | IC50 (HEPG2TOX_HILL_SLOPE 0.594, HEPG2TOX_R_SQUARED 0.62, read-out: LUCIFERASE INFECTION ASSAY - IC50): > 10000 nM
COc1ccc(-c2cc(CN3C(=O)N(C)C4(CCCCC4)C3=O)on2)cc1 | > 10000 | IC50 (HEPG2TOX_HILL_SLOPE 0.667, HEPG2TOX_R_SQUARED 0.327, read-out: LUCIFERASE INFECTION ASSAY - IC50): > 10000 nM
OC(CSc1nnc(CNc2cccc(C(F)(F)F)c2)n1C1CCCCC1)c1ccccc1 (centres undefined) | > 10000 | IC50 (HEPG2TOX_HILL_SLOPE 0.64, HEPG2TOX_R_SQUARED 0.795, PBLUC_HILL_SLOPE 0.508, PBLUC_R_SQUARED 0.492, read-out: LUCIFERASE INFECTION ASSAY - IC50): 1130 nM
COc1ccc(-c2ccc3ncc(-c4ccc(NC(C)=O)cc4)n3n2)cc1OC | 53 | IC50 (HEPG2TOX_HILL_SLOPE 0.646, HEPG2TOX_R_SQUARED 0.97, PBLUC_HILL_SLOPE 3.16, PBLUC_R_SQUARED 0.759, read-out: LUCIFERASE INFECTION ASSAY - IC50): 26.4 nM
Nc1ncnc(N/N=C/c2c(O)ccc3ccccc23)c1[N+](=O)[O-] | > 10000 | IC50 (HEPG2TOX_HILL_SLOPE 0.612, HEPG2TOX_R_SQUARED 0.82, read-out: LUCIFERASE INFECTION ASSAY - IC50): > 10000 nM
O=C(Cn1cnc2sccc2c1=O)c1ccc(C2CCCCC2)cc1 | > 10000 | IC50 (HEPG2TOX_HILL_SLOPE 0.627, HEPG2TOX_R_SQUARED 0.608, PBLUC_HILL_SLOPE 1.31, PBLUC_R_SQUARED 0.795, read-out: LUCIFERASE INFECTION ASSAY - IC50): 2580 nM
CCOc1cccc(-c2cn3c(-c4ccc5c(ccn5C)c4)cnc3cn2)c1 | 63.7 | IC50 (HEPG2TOX_HILL_SLOPE 0.658, HEPG2TOX_R_SQUARED 0.817, PBLUC_HILL_SLOPE 2.41, PBLUC_R_SQUARED 0.611, read-out: LUCIFERASE INFECTION ASSAY - IC50): 25.6 nM
O=C1CCCN1c1ccc(CNc2ccccc2S(=O)(=O)C(F)(F)F)cc1 | > 10000 | IC50 (HEPG2TOX_HILL_SLOPE 0.628, HEPG2TOX_R_SQUARED 0.884, read-out: LUCIFERASE INFECTION ASSAY - IC50): > 10000 nM
Fc1ccc(-c2csc3ncnc(NCc4ccc(CN5CCOCC5)cc4)c23)cc1 | 7440 | IC50 (HEPG2TOX_HILL_SLOPE 0.615, HEPG2TOX_R_SQUARED 0.878, PBLUC_HILL_SLOPE 1.43, PBLUC_R_SQUARED 0.575, read-out: LUCIFERASE INFECTION ASSAY - IC50): 1590 nM
COc1ccc(-c2cnc3cnc(-c4ccccc4N(C)C)cn23)cc1 | 409 | IC50 (HEPG2TOX_HILL_SLOPE 0.622, HEPG2TOX_R_SQUARED 0.863, PBLUC_HILL_SLOPE 8.14, PBLUC_R_SQUARED 0.832, read-out: LUCIFERASE INFECTION ASSAY - IC50): 312 nM
O=[N+]([O-])c1ccccc1/C=N/n1c(-c2ccc(Cl)cc2)cs/c1=N\CC1CCCO1 (centres undefined) | 7090 | IC50 (HEPG2TOX_HILL_SLOPE 0.61, HEPG2TOX_R_SQUARED 0.914, PBLUC_HILL_SLOPE 1.45, PBLUC_R_SQUARED 0.571, read-out: LUCIFERASE INFECTION ASSAY - IC50): 1550 nM
C=CCn1c(SCc2c(C)noc2C)nc2scc(C3CC3)c2c1=O | 51.9 | IC50 (HEPG2TOX_HILL_SLOPE 0.626, HEPG2TOX_R_SQUARED 0.778, PBLUC_HILL_SLOPE 13, PBLUC_R_SQUARED 0.397, read-out: LUCIFERASE INFECTION ASSAY - IC50): 43.9 nM
Cc1cc(C(=O)CSc2nc3ccccc3[nH]2)c(C)n1-c1ccc(F)cc1 | 513 | IC50 (HEPG2TOX_HILL_SLOPE 0.596, HEPG2TOX_R_SQUARED 0.924, PBLUC_HILL_SLOPE 3.63, PBLUC_R_SQUARED 0.908, read-out: LUCIFERASE INFECTION ASSAY - IC50): 280 nM

SMILES | IC90 [nM] | further results
COc1cc(/C=N/NC(=O)c2cc(C)n(-c3ccccc3)c2C)ccc1OCC(=O)Nc1c(C)cc(C)cc1C | 8350 | IC50 (HEPG2TOX_HILL_SLOPE 0.635, HEPG2TOX_R_SQUARED 0.731, PBLUC_HILL_SLOPE 5.43, PBLUC_R_SQUARED 0.0161, read-out: LUCIFERASE INFECTION ASSAY - IC50): 5570 nM
Cc1cc(C(=O)/C(C#N)=N/Nc2ccc(Cl)cc2)n(C(C)(C)C)n1 | 7210 | IC50 (HEPG2TOX_HILL_SLOPE 0.671, HEPG2TOX_R_SQUARED 0.767, PBLUC_HILL_SLOPE 2.12, PBLUC_R_SQUARED 0.724, read-out: LUCIFERASE INFECTION ASSAY - IC50): 2560 nM
CSc1ccc(C=C2C(=O)OC(C)(C)OC2=O)s1 | > 11600 | IC50 (HEPG2TOX_HILL_SLOPE 0.602, HEPG2TOX_R_SQUARED 0.801, PBLUC_HILL_SLOPE 0.853, PBLUC_R_SQUARED 0.0835, read-out: LUCIFERASE INFECTION ASSAY - IC50): > 11600 nM
Fc1cccc(-c2cnc3sc(NCCc4ccncc4)nn23)c1 | > 9720 | IC50 (HEPG2TOX_HILL_SLOPE 0.66, HEPG2TOX_R_SQUARED 0.128, read-out: LUCIFERASE INFECTION ASSAY - IC50): > 9720 nM
Cc1cc(Cl)n2ncc(-c3ccc(F)cc3)c2n1 | 12300 | IC50 (HEPG2TOX_HILL_SLOPE 0.63, HEPG2TOX_R_SQUARED 0.416, PBLUC_HILL_SLOPE 2.81, PBLUC_R_SQUARED 0.71, read-out: LUCIFERASE INFECTION ASSAY - IC50): 5620 nM
CO/N=C1\CCCc2c(C(=O)N/N=C/c3ccc(Cl)cc3)sc(SC)c21 | 1510 | IC50 (HEPG2TOX_HILL_SLOPE 0.585, HEPG2TOX_R_SQUARED 0.788, PBLUC_HILL_SLOPE 2.34, PBLUC_R_SQUARED 0.687, read-out: LUCIFERASE INFECTION ASSAY - IC50): 590 nM
CNS(=O)(=O)c1cccc(C(=O)Nc2ccc(Cl)c(C(F)(F)F)c2)c1 | > 10000 | IC50 (HEPG2TOX_HILL_SLOPE 0.613, HEPG2TOX_R_SQUARED 0.555, PBLUC_HILL_SLOPE 3.22, PBLUC_R_SQUARED 0.568, read-out: LUCIFERASE INFECTION ASSAY - IC50): 7210 nM
COc1ccc(CNc2ncnc3scc(-c4ccccc4)c23)cc1OC | 9560 | IC50 (HEPG2TOX_HILL_SLOPE 0.633, HEPG2TOX_R_SQUARED 0.925, PBLUC_HILL_SLOPE 1.59, PBLUC_R_SQUARED 0.666, read-out: LUCIFERASE INFECTION ASSAY - IC50): 2400 nM
Cc1ccccc1C(Sc1nnc(-c2ccc[nH]2)o1)c1ccccc1 (centres undefined) | > 10000 | IC50 (HEPG2TOX_HILL_SLOPE 0.627, HEPG2TOX_R_SQUARED 0.488, read-out: LUCIFERASE INFECTION ASSAY - IC50): > 10000 nM
Cn1ccc2cc(-c3cnc4cnc(-c5ccccc5Cl)cn34)ccc21 | 43 | IC50 (HEPG2TOX_HILL_SLOPE 0.673, HEPG2TOX_R_SQUARED 0.619, PBLUC_HILL_SLOPE 2.33, PBLUC_R_SQUARED 0.732, read-out: LUCIFERASE INFECTION ASSAY - IC50): 16.8 nM
CNc1snc(C)c1C(=O)NC(C)c1ccc(C(C)C)cc1 (centres undefined) | 2910 | IC50 (HEPG2TOX_HILL_SLOPE 0.648, HEPG2TOX_R_SQUARED 0.871, PBLUC_HILL_SLOPE 1.92, PBLUC_R_SQUARED 0.818, read-out: LUCIFERASE INFECTION ASSAY - IC50): 930 nM
O=C(CSc1nnc(-c2ccccc2)o1)Nc1ncc(Cl)cc1Cl | 1200 | IC50 (HEPG2TOX_HILL_SLOPE 0.667, HEPG2TOX_R_SQUARED 0.783, PBLUC_HILL_SLOPE 16.1, PBLUC_R_SQUARED 0.672, read-out: LUCIFERASE INFECTION ASSAY - IC50): 1050 nM
CC(C)NS(=O)(=O)c1cccc(CNc2ncnc3ccccc23)c1 | 2340 | IC50 (HEPG2TOX_HILL_SLOPE 0.638, HEPG2TOX_R_SQUARED 0.943, PBLUC_HILL_SLOPE 2.45, PBLUC_R_SQUARED 0.694, read-out: LUCIFERASE INFECTION ASSAY - IC50): 954 nM
CC(=O)Nc1ccc(-c2ccc3ncc(-c4ccc(CO)cc4)n3n2)cc1 | > 10000 | IC50 (HEPG2TOX_HILL_SLOPE 0.612, HEPG2TOX_R_SQUARED 0.859, PBLUC_HILL_SLOPE 1.16, PBLUC_R_SQUARED 0.655, read-out: LUCIFERASE INFECTION ASSAY - IC50): 1900 nM
Cc1ccc(-n2ncc(C(=O)Nc3ccncc3)c2C2CC2)cc1Cl | 7690 | IC50 (HEPG2TOX_HILL_SLOPE 0.617, HEPG2TOX_R_SQUARED 0.925, PBLUC_HILL_SLOPE 1.2, PBLUC_R_SQUARED 0.513, read-out: LUCIFERASE INFECTION ASSAY - IC50): 1230 nM
CCOc1cccc(C2Nc3ccccc3C(=O)N2C2CC2)c1O (centres undefined) | 9550 | IC50 (HEPG2TOX_HILL_SLOPE 0.644, HEPG2TOX_R_SQUARED 0.857, PBLUC_HILL_SLOPE 2.2, PBLUC_R_SQUARED 0.323, read-out: LUCIFERASE INFECTION ASSAY - IC50): 3510 nM
